# Test results published in US5122448A, “Assay of anti-Epstein-Barr virus nuclear antigen antibodies with synthetic polypeptides” (Scripps Clinic and Research Foundation, priority 1990, dated 1992).
# Residues, ends and D or L forms follow the SMILES beside them.
# Tests used:
# [1] = system: EBNA; assay: Immunoblot of WI-L2 whole cell extracts with rabbit antipeptide antisera, blocking by polypeptide; assay type: binding, Epstein-Barr virus
# Procedure: Exemplary receptor molecules containing antibody combining sites of this invention raised in rabbits to the polypeptides shown in Table 1 were studied using the immunoblotting procedures of Towbin, et. al., Proc. Natl. Acad. Sci., U.S.A., 76:4350-4354 (1979) and Billings, et. al., Proc. Natl. Acad. Sci., U.S.A., 80:7104-7108 (1983). Further details are provided in the Materials and Methods section (III).
# Extracts of EBNA producing and non-producing (control) cells were prepared to determine if receptor molecules of this invention were useful for diagnosing EBNA expression. Cells from cultures described hereinabove were washed in phosphate-buffered saline (PBS; 150 mM NaCl, 10 mM sodium phosphate, pH 7.4) containing 0.2 mM phenylmethylsulfonyl fluoride, swollen for 5 minutes in reticulocyte standard buffer (RSB; 10 mM NaCl, 10 mM Tris-HCl, pH 7.4, 1.5 mM MgCl2, 0.2 mM phenylmethylsulfonyl fluoride), and lysed by sonication in 3-5 volumes of RBS adjusted to 0.2-0.35 molar (M) NaCl. After 30 minutes on ice, the sonicate was centrifuged at 10,000×g for 15 minutes to remove cellular debris.
# Cell extracts obtained above were assayed for EBNA using human sera known to contain anti-EBNA antibodies or exemplary receptor molecules of this invention. The extracts were either concentrated by precipitation with 2 volumes of ethanol at -20 degrees C. for about 18 hours, and were then dissolved in sample buffer [SB; 10% glycerol, 2% 2-mercaptoethanol, 1% sodium dodecyl sulfate (SDS), 0.002% bromphenol blue, 40 mM Tris-HCl (pH 7.4)] or diluted 1:6 in sample buffer for SDS-polyacrylamide gel electrophoresis (SDS-PAGE). 7.5% Polyacrylamide gels were cast and run according to the procedure of Laemmli, Nature, […] (1970), applying 50 to 200 micrograms of total protein per lane. […]
# Anti-peptide antibodies bound to EBNA protein were detected by reacting the blots with an indicating means. […]
# [2] = system: anti-EBNA antibodies; assay: ELISA with polypeptide as solid phase antigen, anti-polypeptide activity of sera (OD405); assay type: binding, human; conditions: for OD405 × 10^3 obtained with Patient Antibodies to peptide: serum 1:20
# Procedure: Briefly, microtiter wells (Costar, #3590, Cambridge, MA) were typically coated with individual polypeptides as antigens by adding 100 microliters (ul) of BBS [10 millimoler (mM) sodium borate (pH 8.3), 150 mM NaCl] containing polypeptide at a concentration of 10 micrograms per milliliter (ug/ml). Contact between the wells and antigen-containing solution was maintained for a predetermined time, typically 15 minutes, and at 20 degrees C., to form an antigen-coated solid phase. The solid and liquid phases were separated and the wells were washed three times with BBS.
# Non-specific binding sites were blocked by admixing 200 microliters of 1% bovine serum albumin (BSA) in each well to form another solid/liquid phase admixture, and maintaining that solid/liquid phase admixture for 30 minutes, at 20 degrees C. The phases were separated and excess, unbound BSA was removed by washing three times with BBS.
# The antibodies in human sera that immunoreacted with an adsored polypeptide were detected using an indicating means comprising alkaline phosphatase-conjugated goat anti-human Ig antibody (Tago, Burlington, Calif.). The antibodies in rabbit sera that immunoreacted with an adsorbed polypeptide were detected using an indicating means comprising alkaline phosphatase-conjugated goat anti-rabbit Ig antibody (Kirkegard & Perry Laboratories, Inc., Gaithersburg, MD). In either instance, 100 microliters of the indicating antibody diluted 1:300 in BBS were added per well to form a further solid/liquid phase composition. This solid-liquid phase composition was maintained for a predetermined time, one hour, for the formation of a reaction product between the human antibodies bound to the solid phase and the indicating means, and at 20 degrees C. The phases were separated, and the solid phase was washed 3 times with BBS.
# Alkaline phosphatase-conjugated antibody bound to polypeptide specific antibody was detected by spectrophotometrically measuring the enzymatic hydrolysis of p-nitrophenyl phosphate to p-nitrophenol. Briefly, 100 microliters of p-nitrophenyl phosphate [1 milligram per milliliter in 2 mM MgCl 2, (pH 9.8), 50 mM sodium carbonate] were added to each well. The enzymatic reaction was allowed to proceed 1 hour and then the optical density at 405 nm was determined in a [sequence] spectrophotometer available from Flow Laboratories, Inglewood, Calif.
# [3] = Circular dichroism spectroscopy; assay type: physicochemical; conditions: 1 mg/ml in phosphate buffered saline
# Procedure: The conformational properties of the polypeptides were investigated to elucidate any secondary structure that might be necessary for polypeptide immunoreaction with human anti-EBNA antibodies. The polypeptides were dissolved at a concentration of 1 mg/ml in phosphate-buffered saline (PBS). Spectra were taken using 1 ml samples in a Cary 61 spectropolarimeter (Cary Instruments, Applied Physics Corp., Monrovia, Calif.) interfaced and automated with a Digital Equipment Corporation 11/02 computer (Digital Equipment Corporation, Maynard, Mass.).
# [4] = system: rabbit anti-polypeptide antibody to polypeptide P62; assay: Competition ELISA with rabbit anti-polypeptide P62 antibody on solid phase P62; assay type: binding; conditions: antibody first incubated with competing polypeptide
# Procedure: Anti-peptide antibody binding and inhibition studies were carried out by an enzyme-linked immunosorbent assay (ELISA) as described below.
# Contact between the wells and antigen-containing solution was maintained for a predetermined time, typically 15 minutes, and at 20 degrees C., to form an antigen-coated solid phase. The solid and liquid phases were separated and the wells were washed three times with BBS.
# Rabbit and human sera (body sample aliquots) were assayed for anti-polypeptide activity by adding 100 microliters of a serum diluted 1:20 in BBS per well to form a solid/liquid phase composition. Contact between the diluted sera and the antigen-coated solid phase was maintained for a predetermined time such as 1 hour, and at 20 degrees C., for an immunoreactant to form. The solid and liquid phases were separated, and the solid phase; i.e., antigen-coated, immunoreactant-containing wells, was then washed three times with BBS.
smiles,measurement,setting,value
"C[C@H](NC(=O)CNC(=O)CNC(=O)[C@H](C)NC(=O)CNC(=O)[C@H](C)NC(=O)CNC(=O)CNC(=O)CN)C(=O)NCC(=O)N[C@@H](C)C(=O)NCC(=O)NCC(=O)NCC(=O)NCC(=O)N[C@@H](CCCNC(=N)N)C(=O)O [Polypeptide P60, H--Gly--Gly--Gly--Ala--Gly--Ala--Gly--Gly--Ala--Gly--Ala--Gly--Gly--Gly--Gly--Arg--OH] (H-GGGAGAGGAGAGGGGR-OH)",Immunoreactivity of anti-P62 serum with the EBNA band after preincubation with polypeptide,"[1]; serum 1:10, 40 ug/ml polypeptide P60, one hour",inhibited
same,Recognition of EBNA by anti-P60 serum after preincubation with polypeptide,"[1]; serum 1:50, 40 ug/ml polypeptide, one hour",inhibited
same,Reactivity of sera of EBV non-immune donors to polypeptide,[2]; 27 EBV non-immune (VCA-) donors,None of the sera displayed significant reactivity
same,Number of anti-EBNA positive sera positive against (bound to) polypeptide,"[2]; 91 ACIF anti-EBNA positive sera, 1:20 dilution",91
same,Titer of PSS patients versus normals,[2]; Progressive Systemic Schlerosis patients,relatively higher average titer
same,Reaction of VCA+ sera with polypeptide,"[2]; clinically normal VCA+ individuals, two dilutions",all of the VCA^+ individuals were positive
same,Reaction of VCA- sera with polypeptide,[2]; panel of 19 VCA- sera,None of the VCA^- sera were found to react positively
same,OD405 × 10^3 obtained with Patient Antibodies to peptide,[2]; MV post-mononucleosis,162 OD405 × 10^3
same,OD405 × 10^3 obtained with Patient Antibodies to peptide,[2]; MV pre-mononucleosis,72 OD405 × 10^3
same,OD405 × 10^3 obtained with Patient Antibodies to peptide,[2]; SB post-mononucleosis,115 OD405 × 10^3
same,OD405 × 10^3 obtained with Patient Antibodies to peptide,[2]; SB pre-mononucleosis,51 OD405 × 10^3
same,OD405 × 10^3 obtained with Patient Antibodies to peptide,[2]; VCA+ Normal 1,154 OD405 × 10^3
same,OD405 × 10^3 obtained with Patient Antibodies to peptide,[2]; VCA+ Normal 2,145 OD405 × 10^3
same,OD405 × 10^3 obtained with Patient Antibodies to peptide,"[2]; VCA- Normals (n = 27), average ± one standard deviation",45 ± 18 OD405 × 10^3
same,Conformation by circular dichroism spectrum,[3],very similar spectra
same,Inhibition of binding of anti-polypeptide P62 to polypeptide P62 in the solid phase,[4],81%
